Test results: the supplement of paper PMC10307832

How the values were obtained:
Assay in all cases: relative viability (nuclei count vs DMSO), 5 days (fraction); higher = more cells survive
Imatinib = compound: Cc1ccc(NC(=O)c2ccc(CN3CCN(C)CC3)cc2)cc1Nc1nccc(-c2cccnc2)n1 [Imatinib]
In short: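 In 1536-well plates, lung cancer cell lines rested overnight at 37 °C before five library-drug doses (not always all listed), √10 apart, were pinned onto vehicle-anchored plates. Nuclei were counted with MetaXpress from 4× Hoechst images taken after 5 days without medium change. Viability compares treated-well with vehicle-well nuclei as a median over plates, and plates needed control CV below 25% plus at least one doubling to pass.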

Imatinib + Dasatinib = compound: Cc1ccc(NC(=O)c2ccc(CN3CCN(C)CC3)cc2)cc1Nc1nccc(-c2cccnc2)n1 [Imatinib] + Cc1nc(Nc2ncc(C(=O)Nc3c(C)cccc3Cl)s2)cc(N2CCN(CCO)CC2)n1 [Dasatinib] (partner 0.075 µM)
In short: (§1)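 Five library-drug doses in √10 steps were combined with a fixed anchor-drug dose, or a single drug was given alone, by pin tool to lung cancer cell lines in 1536-well plates the day after seeding. Nuclei were stained and counted after 5 days. Relative viability is the nuclei count in treated wells over that in vehicle wells, taken as the median of duplicate plates.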

Imatinib + Decitabine = compound: Cc1ccc(NC(=O)c2ccc(CN3CCN(C)CC3)cc2)cc1Nc1nccc(-c2cccnc2)n1 [Imatinib] + Nc1ncn([C@H]2C[C@H](O)[C@@H](CO)O2)c(=O)n1 [Decitabine] (partner 2 µM)
In short: as §1

Imatinib + Bortezomib = compound: Cc1ccc(NC(=O)c2ccc(CN3CCN(C)CC3)cc2)cc1Nc1nccc(-c2cccnc2)n1 [Imatinib] + CC(C)C[C@H](NC(=O)[C@H](Cc1ccccc1)NC(=O)c1cnccn1)B(O)O [Bortezomib] (partner 0.002 µM)
In short: as §1

| Cell Line | relative viability (Imatinib; 0.02 µM) | relative viability (Imatinib; 0.2 µM) | relative viability (Imatinib; 0.6325 µM) | relative viability (Imatinib; 2 µM) | relative viability (Imatinib + Dasatinib; first compound 0.02 µM) | relative viability (Imatinib + Dasatinib; first compound 0.2 µM) | relative viability (Imatinib + Dasatinib; first compound 0.6325 µM) | relative viability (Imatinib + Dasatinib; first compound 2 µM) | relative viability (Imatinib + Decitabine; first compound 0.02 µM) | relative viability (Imatinib + Decitabine; first compound 0.2 µM) | relative viability (Imatinib + Decitabine; first compound 0.6325 µM) | relative viability (Imatinib + Decitabine; first compound 2 µM) | relative viability (Imatinib + Bortezomib; first compound 0.02 µM) | relative viability (Imatinib + Bortezomib; first compound 0.2 µM) | relative viability (Imatinib + Bortezomib; first compound 0.6325 µM) | relative viability (Imatinib + Bortezomib; first compound 2 µM) | relative viability (Imatinib; 0.06325 µM) | relative viability (Imatinib + Bortezomib; first compound 0.06325 µM) | relative viability (Imatinib + Dasatinib; first compound 0.06325 µM) | relative viability (Imatinib + Decitabine; first compound 0.06325 µM) |
| --- | --- | --- | --- | --- | --- | --- | --- | --- | --- | --- | --- | --- | --- | --- | --- | --- | --- | --- | --- | --- |
| HOP-62 | 1.15 | 1.2 | 0.999 | 0.943 | 0.726 | 0.642 | 0.576 | 0.54 | 0.199 | 0.25 | 0.232 | 0.211 | 1.14 | 1.19 | 0.732 | 0.598 |  |  |  |  |
| IA-LM | 1.04 | 0.936 | 1.27 | 0.853 |  |  |  |  |  |  |  |  | 0.767 | 0.937 | 0.744 | 0.784 | 1.02 | 1.03 |  |  |
| LC-2-ad | 1.04 | 0.986 | 0.973 | 1 | 0.603 | 0.461 | 0.484 | 0.588 | 0.816 | 0.948 | 0.824 | 0.759 | 1.16 | 1.18 | 0.985 | 0.929 | 0.715 | 0.658 | 0.545 |  |
| LCLC-97TM1 | 1.08 | 1.01 | 1 | 1.03 | 0.926 | 0.875 | 0.81 | 0.86 | 0.208 | 0.253 | 0.216 | 0.226 | 0.552 |  | 0.741 | 0.524 |  |  |  |  |
| LCLC-103H | 1.02 | 1.12 | 0.964 |  | 0.637 | 0.471 | 0.471 | 0.388 | 0.717 | 0.767 | 0.74 | 0.754 | 1.08 |  | 1.13 |  | 0.806 |  | 0.436 | 0.741 |
| LK-2 | 1.05 | 1.08 | 0.678 | 0.97 | 0.258 | 0.282 | 0.276 | 0.15 | 0.336 | 0.237 |  | 0.183 |  |  |  |  | 0.805 |  | 0.266 | 0.323 |
| LOU-NH91 | 0.968 | 0.966 | 0.964 | 0.874 | 0.569 | 0.607 | 0.567 | 0.56 | 0.793 | 0.795 | 0.813 | 0.767 | 0.557 | 0.51 | 0.423 | 0.479 | 1.09 | 0.517 | 0.581 | 0.814 |
| LU99A | 1.03 | 0.977 | 0.964 | 1.17 | 0.761 | 0.555 | 0.736 | 0.372 | 0.986 | 0.824 | 0.812 | 0.903 | 1.34 | 1.08 | 1.23 | 1.03 | 1.05 | 1.19 | 0.637 | 0.827 |
| LXF-289 | 1.06 | 1.1 | 1.01 | 0.976 | 0.216 | 0.217 | 0.19 | 0.195 | 0.387 | 0.407 | 0.391 | 0.405 | 1.06 | 1.13 | 0.974 | 0.955 | 0.998 |  | 0.259 |  |
| NCI-H23 | 1.06 | 1.07 | 0.967 | 0.926 | 1.06 | 0.694 | 0.78 | 0.972 | 0.319 | 0.299 | 0.287 | 0.355 | 1.29 | 1.13 | 1.03 |  | 0.994 | 0.95 | 0.688 | 0.31 |
| NCI-H358 |  | 1.02 | 0.819 | 0.947 | 0.151 | 0.153 | 0.163 | 0.135 | 0.205 | 0.214 | 0.207 | 0.202 |  |  |  |  | 0.865 |  | 0.13 | 0.168 |
| NCI-H1299 | 1.05 | 1.07 | 1.02 | 1.04 |  |  |  |  |  |  |  |  | 1.05 | 0.98 | 1.03 | 1.03 |  | 1.01 |  |  |
| NCI-H1395 | 1.13 | 0.897 | 0.976 | 0.938 | 0.438 | 0.381 | 0.393 | 0.418 | 0.754 | 0.656 | 0.678 | 0.69 |  |  |  |  |  |  | 0.347 |  |
| NCI-H1563 |  | 1.11 | 0.963 | 0.976 | 0.458 | 0.457 | 0.421 | 0.448 |  |  |  |  | 0.885 | 0.889 | 0.809 | 0.86 | 0.912 | 0.789 | 0.523 |  |
| NCI-H1648 | 0.744 | 0.699 | 0.421 | 0.618 |  |  |  |  | 0.442 | 0.448 | 0.393 | 0.456 |  |  |  |  | 0.627 |  |  | 0.478 |
| NCI-H1703 | 0.947 | 0.56 | 0.357 | 0.212 |  |  |  |  |  |  |  |  | 0.289 | 0.138 | 0.214 | 0.186 | 0.804 | 0.29 |  |  |
| NCI-H1793 | 0.939 | 1.11 | 0.884 | 0.909 | 0.421 | 0.388 | 0.368 | 0.388 | 0.477 | 0.522 | 0.447 | 0.445 |  |  |  |  |  |  |  |  |
| NCI-H1944 | 0.974 | 0.977 | 0.969 | 0.951 | 0.198 | 0.2 | 0.2 | 0.234 | 0.427 | 0.474 | 0.401 | 0.444 |  |  |  |  | 0.706 |  | 0.208 | 0.394 |
| NCI-H2170 | 0.987 | 1.05 | 0.961 | 1.01 | 0.636 | 0.477 | 0.48 | 0.411 | 0.463 | 0.486 | 0.454 | 0.458 |  |  |  |  | 0.955 |  | 0.582 | 0.492 |
| NCI-H2228 |  | 1.33 |  | 1.08 | 0.621 | 0.464 | 0.424 | 0.55 |  |  |  |  | 1.13 | 1.14 | 1.01 | 0.895 | 0.927 | 0.782 |  |  |
| NCI-H2342 | 0.896 | 0.972 | 0.943 | 0.998 | 0.289 | 0.321 | 0.321 | 0.316 | 0.745 | 0.779 | 0.679 | 0.71 |  |  |  |  | 0.891 |  | 0.326 | 0.713 |
| SK-MES-1 |  | 1.21 | 1.01 | 1.04 | 0.372 | 0.372 | 0.318 | 0.337 | 0.379 | 0.413 | 0.417 | 0.334 |  |  |  |  | 1.05 |  | 0.309 | 0.412 |
